Where two headings read alike, the source gives them in different places.
Legend:
ICAM-1 = experiment: Effect on the expression of ICAM-1 in human cultured umbilical cord endothelial cells (TNF-stimulated, ELISA); assay type: cell-based; conditions: 1 ng/ml TNF, expression with TNF = 100%, without TNF = 0%, read-out: IC50 (50% inhibitory concentration of ICAM-1 expression)
Method: Effect on the Expression of ICAM-1 in Human Cultured Umbilical Cord Endothelial Cells
Examination was made on the effect on the expression of ICAM-1 which is one of adhesion molecules expressed on the surfaces of cultured endothelia cells. The endotheliall cells were suspended in an MCDB131 medium containing 10% of fetal calf serum and pipetted into a 96-well culture plate (10,000 cells/well). After culturing at 37° C. in the presence of 5% of carbon dioxide for 2 days, 1 ng/ml of a tumor necrosis factor (TNF) and a test compound were added to the 96-well culture plate. After culturing at 37° C. in the presence of 5% of carbon dioxide for 4 hours and then washing with a phosphate buffer once, 0.05% of glutaraldehyde was added thereto. Six minutes thereafter, the plate was washed twice and 1 μg/ml of a mouse antihuman ICAM-1 antibody was added thereto. After allowing to stand for 1 hour, it was washed twice and a peroxidase-labeled sheep antimouse immunoglobulin antibody was added thereto. After allowing to stand for 1 hour, it was washed twice and a color developing substrate for peroxidase (o-phenylenediamine) was added thereto. After allowing to stand at room temperature for 10 minutes, a 1 N solution of sulfuric acid was added thereto. Then the absorbance at 490 nm was measured with the use of an absorptiometer for 96-well plate. The value thus obtained was employed as an indication of the ICAM-1 expression.

[1] = test system: Carrageenin-induced Rat Pleurisy; experiment: Effect on carrageenin-induced rat pleurisy; assay type: in vivo; conditions: Rattus norvegicus, po, 5 h, total cell count in pleural exudate 5 hours after carrageenin; dose 30 mg/kg orally 30 minutes before carrageenin; read-out: Inhibitory ratio (%)
Method: Effect on Carrageenin-induced Rat Pleurisy
200 μl of a carrageenin solution (10 mg/ml in physiological saline) was intrathoracically injected into rats. Five hours thereafter, blood of the animals was collected from the abdominal aorta under etherization so as to induce death from blood loss. The exudate was taken up from the thoracic cavity and weighed with a single-pan balance. Further, the exudate was diluted with Turk's solution and the cells were counted by using a counting chamber. Next the total cell count was calculated by multiplying the cell count by the exudate volume. Thus the inhibitory ratio was calculated by taking the total cell count with the administration of carrageenin as 100% and that with the administration of physiological saline as 0%. Each test compound was suspended in a 0.5% solution of methylcellulose and orally administered at a dose of 5 ml/kg 30 minutes before the injection of carrageenin.

N#C/N=C(\N)Cc1ccc2c(c1)Nc1nccnc1S2 [Example 1487, N^2-Cyano-(10H-pyrazino[2,3-b][1,4]benzothiazin-8-yl)acetamidine]
IC50 (ICAM-1; Homo sapiens, Endothelial cell, 4 h): 670 nM | inhibition in vivo at 30 mg/kg [1]: 32%

O=C(O)CC1C2CCCC1CN(Cc1ccc3c(c1)Nc1nccnc1S3)C2 (stereo not drawn) [Example 1568, (endo,anti)-[3-(10H-Pyrazino[2,3-b][1,4]benzothiazin-8-ylmethyl)-3-azabicyclo[3.3.1]non-9-yl]acetic acid]
IC50 (ICAM-1; 4 hours): 500 nM | inhibition in vivo at 30 mg/kg [1]: 50%
